pIC50: −log10 of the molar value.
Columns and labels:
MDR1 (P-gp) = MDR1 (P-gp) (Homo sapiens (Human), UniProt P08183); experiment: in vitro; settings: pig, LLC-PK1
BCRP = BCRP (Homo sapiens (Human), UniProt Q9UNQ0); experiment: BCRP MDCKII efflux assay (Assay 7); type: in vitro ADME; settings: dog; efflux ratio Papp(B-A)/Papp(A-B), BCRP MDCKII cells; read-out: Assay 7 Pe Ratio
Description: Assay conditions included with and without the BCRP-specific inhibitor, KO143, at a concentration of 0.3 μM to ascertain the contribution of BCRP to the efflux value of the test compound.
Final organic concentration in the assay was 1%.

EGFR = EGFR (Homo sapiens (Human), UniProt P00533); experiment: ErbB Enzyme Assay (HTRF KinEASE-TK), Assay 3; type: biochemical; settings: EGFR enzyme
ErbB2 WT = ErbB2 WT (Homo sapiens (Human), UniProt P04626); experiment: ErbB Enzyme Assay (HTRF KinEASE-TK), Assay 2; type: biochemical; settings: ErbB2 WT enzyme
[1] = target: ErbB2 with Exon 20 YVMA insertion (HER2-YVMA) (Homo sapiens (Human), UniProt P04626, INS775YVMA); experiment: Cellular Phosphorylation Assay, Assay 4 (constitutive ErbB2 phosphorylation, NIH 3T3 cells); type: cell-based; settings: ErbB2 YVMA phosphorylation
EGFR wild type (EGFR WT) = EGFR wild type (EGFR WT) (Homo sapiens (Human), UniProt P00533); experiment: Cellular Phosphorylation Assay, Assay 5 (EGF-stimulated EGFR phosphorylation, NIH 3T3 cells); type: cell-based; settings: EGF-stimulated EGFR WT phosphorylation

Chain of BCRP (Q9UNQ0 whole entry): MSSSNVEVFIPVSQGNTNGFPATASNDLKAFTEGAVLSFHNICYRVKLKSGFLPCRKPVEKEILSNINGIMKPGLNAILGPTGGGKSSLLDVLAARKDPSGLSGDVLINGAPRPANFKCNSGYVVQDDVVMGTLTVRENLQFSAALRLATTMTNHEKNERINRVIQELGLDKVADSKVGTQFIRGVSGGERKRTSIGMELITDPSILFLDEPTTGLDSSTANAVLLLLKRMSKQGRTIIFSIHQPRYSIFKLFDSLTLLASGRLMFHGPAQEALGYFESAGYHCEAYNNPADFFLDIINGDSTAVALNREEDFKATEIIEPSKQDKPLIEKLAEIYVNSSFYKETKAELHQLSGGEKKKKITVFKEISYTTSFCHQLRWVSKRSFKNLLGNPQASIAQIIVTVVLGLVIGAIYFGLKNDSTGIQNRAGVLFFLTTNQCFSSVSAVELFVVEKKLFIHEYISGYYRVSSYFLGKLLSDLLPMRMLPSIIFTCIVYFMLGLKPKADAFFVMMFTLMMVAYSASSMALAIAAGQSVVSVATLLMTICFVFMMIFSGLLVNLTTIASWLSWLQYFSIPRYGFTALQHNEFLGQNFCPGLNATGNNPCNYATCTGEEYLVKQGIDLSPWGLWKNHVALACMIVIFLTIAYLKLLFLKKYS
Chain of MDR1 (P-gp) (P08183 whole entry): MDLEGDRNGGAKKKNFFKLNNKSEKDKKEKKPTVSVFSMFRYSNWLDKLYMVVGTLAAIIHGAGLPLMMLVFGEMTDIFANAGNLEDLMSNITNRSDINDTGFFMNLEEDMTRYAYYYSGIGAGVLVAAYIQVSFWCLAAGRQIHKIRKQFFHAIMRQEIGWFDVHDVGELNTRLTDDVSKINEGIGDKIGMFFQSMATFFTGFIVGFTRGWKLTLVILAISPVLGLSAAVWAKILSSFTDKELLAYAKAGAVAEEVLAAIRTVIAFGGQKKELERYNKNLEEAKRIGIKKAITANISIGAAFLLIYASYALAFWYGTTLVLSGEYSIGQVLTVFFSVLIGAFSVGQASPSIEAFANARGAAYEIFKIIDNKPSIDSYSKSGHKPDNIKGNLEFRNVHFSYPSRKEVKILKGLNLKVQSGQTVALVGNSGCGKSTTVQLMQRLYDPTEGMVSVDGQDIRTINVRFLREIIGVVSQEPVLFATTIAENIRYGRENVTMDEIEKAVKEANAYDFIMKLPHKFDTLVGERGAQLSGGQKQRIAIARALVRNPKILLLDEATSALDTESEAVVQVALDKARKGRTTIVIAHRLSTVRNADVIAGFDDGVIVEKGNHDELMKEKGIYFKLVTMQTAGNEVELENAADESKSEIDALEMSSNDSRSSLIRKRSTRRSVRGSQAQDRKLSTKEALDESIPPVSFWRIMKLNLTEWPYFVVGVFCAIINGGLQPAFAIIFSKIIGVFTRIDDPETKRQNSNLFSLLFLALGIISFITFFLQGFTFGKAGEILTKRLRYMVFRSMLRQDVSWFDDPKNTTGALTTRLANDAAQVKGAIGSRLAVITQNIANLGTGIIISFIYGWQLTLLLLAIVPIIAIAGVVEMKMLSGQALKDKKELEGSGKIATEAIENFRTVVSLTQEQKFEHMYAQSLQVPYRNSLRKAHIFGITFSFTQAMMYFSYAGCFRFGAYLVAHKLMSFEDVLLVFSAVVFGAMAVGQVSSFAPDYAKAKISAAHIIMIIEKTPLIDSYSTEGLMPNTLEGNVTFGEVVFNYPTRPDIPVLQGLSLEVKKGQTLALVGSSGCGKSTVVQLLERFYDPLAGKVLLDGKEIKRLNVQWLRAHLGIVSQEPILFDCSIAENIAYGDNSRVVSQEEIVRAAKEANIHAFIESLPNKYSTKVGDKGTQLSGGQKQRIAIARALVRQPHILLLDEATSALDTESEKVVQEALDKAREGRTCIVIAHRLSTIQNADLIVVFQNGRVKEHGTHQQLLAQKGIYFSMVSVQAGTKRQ
Chain of ErbB2 WT (P04626 23-1255): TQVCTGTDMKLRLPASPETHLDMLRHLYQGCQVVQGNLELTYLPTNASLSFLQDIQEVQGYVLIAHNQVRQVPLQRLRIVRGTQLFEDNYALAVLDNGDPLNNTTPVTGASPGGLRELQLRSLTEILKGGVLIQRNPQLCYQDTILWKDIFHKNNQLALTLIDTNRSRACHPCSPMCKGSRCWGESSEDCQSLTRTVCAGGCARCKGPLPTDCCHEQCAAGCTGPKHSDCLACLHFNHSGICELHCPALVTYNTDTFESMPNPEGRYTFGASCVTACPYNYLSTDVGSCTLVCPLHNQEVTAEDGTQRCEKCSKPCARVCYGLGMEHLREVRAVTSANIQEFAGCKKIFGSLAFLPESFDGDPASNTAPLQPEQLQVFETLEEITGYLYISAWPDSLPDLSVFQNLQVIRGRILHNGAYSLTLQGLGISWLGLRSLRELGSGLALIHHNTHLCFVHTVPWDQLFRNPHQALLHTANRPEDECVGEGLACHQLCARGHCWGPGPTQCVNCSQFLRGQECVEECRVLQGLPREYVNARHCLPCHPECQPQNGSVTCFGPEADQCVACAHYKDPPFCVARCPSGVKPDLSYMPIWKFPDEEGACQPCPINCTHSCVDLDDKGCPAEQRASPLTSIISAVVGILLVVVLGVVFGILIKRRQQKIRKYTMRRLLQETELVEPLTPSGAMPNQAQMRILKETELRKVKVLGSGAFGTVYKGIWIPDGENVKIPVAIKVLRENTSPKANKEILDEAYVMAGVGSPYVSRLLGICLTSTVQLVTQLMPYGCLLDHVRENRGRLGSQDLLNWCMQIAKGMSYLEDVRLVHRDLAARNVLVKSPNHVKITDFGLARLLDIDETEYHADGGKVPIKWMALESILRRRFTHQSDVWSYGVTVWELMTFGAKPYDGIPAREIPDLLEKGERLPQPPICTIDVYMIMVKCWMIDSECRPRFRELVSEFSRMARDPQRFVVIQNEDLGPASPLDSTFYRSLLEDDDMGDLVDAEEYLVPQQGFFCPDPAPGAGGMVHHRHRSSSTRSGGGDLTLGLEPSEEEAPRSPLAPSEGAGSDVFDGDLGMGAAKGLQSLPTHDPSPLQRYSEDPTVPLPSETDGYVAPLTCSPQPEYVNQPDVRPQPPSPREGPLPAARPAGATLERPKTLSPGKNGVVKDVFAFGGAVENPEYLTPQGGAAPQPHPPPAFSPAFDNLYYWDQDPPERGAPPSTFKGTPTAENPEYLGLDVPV
Chain of ErbB2 with Exon 20 YVMA insertion (HER2-YVMA) (P04626 other isoform, or with tags, fused parts or gaps ins YVMA behind 775): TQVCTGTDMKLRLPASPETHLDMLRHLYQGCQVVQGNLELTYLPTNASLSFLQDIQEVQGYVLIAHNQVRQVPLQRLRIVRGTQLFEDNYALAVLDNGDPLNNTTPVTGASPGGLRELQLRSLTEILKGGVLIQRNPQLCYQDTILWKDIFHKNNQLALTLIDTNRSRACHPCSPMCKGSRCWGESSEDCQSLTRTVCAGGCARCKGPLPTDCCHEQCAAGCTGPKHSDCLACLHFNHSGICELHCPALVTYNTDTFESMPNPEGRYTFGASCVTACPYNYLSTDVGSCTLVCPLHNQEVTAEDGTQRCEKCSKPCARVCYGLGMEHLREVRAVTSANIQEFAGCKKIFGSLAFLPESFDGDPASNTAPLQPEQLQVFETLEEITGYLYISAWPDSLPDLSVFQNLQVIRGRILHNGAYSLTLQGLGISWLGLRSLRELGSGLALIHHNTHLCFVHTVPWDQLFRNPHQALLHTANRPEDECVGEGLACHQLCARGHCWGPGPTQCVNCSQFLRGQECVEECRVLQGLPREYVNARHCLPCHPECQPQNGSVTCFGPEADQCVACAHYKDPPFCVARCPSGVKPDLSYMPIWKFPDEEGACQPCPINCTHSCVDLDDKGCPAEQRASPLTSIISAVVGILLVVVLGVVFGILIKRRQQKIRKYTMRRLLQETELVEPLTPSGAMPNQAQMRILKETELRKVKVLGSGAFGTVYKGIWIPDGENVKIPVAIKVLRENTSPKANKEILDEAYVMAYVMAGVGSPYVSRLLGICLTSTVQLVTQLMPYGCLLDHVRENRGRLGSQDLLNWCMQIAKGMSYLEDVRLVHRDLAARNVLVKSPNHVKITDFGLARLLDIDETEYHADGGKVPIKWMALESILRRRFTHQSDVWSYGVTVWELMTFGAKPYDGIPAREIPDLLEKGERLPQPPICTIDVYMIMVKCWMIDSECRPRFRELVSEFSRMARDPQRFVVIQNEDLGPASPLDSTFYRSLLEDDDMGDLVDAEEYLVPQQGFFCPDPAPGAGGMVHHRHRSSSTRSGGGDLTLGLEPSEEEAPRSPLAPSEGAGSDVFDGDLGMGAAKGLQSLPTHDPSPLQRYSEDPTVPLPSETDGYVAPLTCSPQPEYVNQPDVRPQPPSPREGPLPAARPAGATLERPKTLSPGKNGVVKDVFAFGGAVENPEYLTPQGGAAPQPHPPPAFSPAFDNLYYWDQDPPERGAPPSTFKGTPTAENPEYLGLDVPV

Row | efflux ratio at 2 h, 1 µM (MDR1 (P-gp)) | efflux ratio at 2 h, 1 µM (BCRP) | pIC50 (EGFR) | pIC50 (ErbB2 WT) | pIC50 [1] | pIC50 (EGFR wild type (EGFR WT)) | SMILES
1 | 1.2 | 1.4 | 6.66 | 8.08 | 8.40 | 6.98 | C=CC(=O)N1CCC(Oc2ccc3ncnc(Nc4ccc(Oc5ccn6ncnc6c5)c(Cl)c4F)c3n2)CC1 [Example 13, 1-(4-((4-((4-([1,2,4]triazolo[1,5-a]pyridin-7-yloxy)-3-chloro-2-fluorophenyl)amino)pyrido[3,2-d]pyrimidin-6-yl)oxy)piperidin-1-yl)prop-2-en-1-one]
2 | 2 | 5.2 | ≤ 5.00 | 6.56 | 7.58 | ≤ 5.30 | C=CC(=O)N1CCC(Sc2ccc3ncnc(Nc4ccc(Oc5ccc6c(c5)ncn6C)c(C)c4F)c3n2)CC1 [Example 28, 1-(4-((4-((2-fluoro-3-methyl-4-((1-methyl-1H-benzo[d]imidazol-5-yl)oxy)phenyl)amino)pyrido[3,2-d]pyrimidin-6-yl)thio)piperidin-1-yl)prop-2-en-1-one]
3 | 1.5 | 5 | 6.70 | 8.22 | 8.64 | 7.06 | C=CC(=O)N1CCN(c2ccc3ncnc(Nc4ccc(Oc5ccn6ncnc6c5)c(Cl)c4F)c3n2)CC1 [Example 30, 1-(4-(4-((4-([1,2,4]triazolo[1,5-a]pyridin-7-yloxy)-3-chloro-2-fluorophenyl)amino)pyrido[3,2-d]pyrimidin-6-yl)piperazin-1-yl)prop-2-en-1-one]
4 | 1.3 | 1.8 | 5.18 | 7.84 | 7.64 | 6.03 | C=CC(=O)N1CCN(c2ccc3ncnc(Nc4ccc(Oc5ccn6ncnc6c5)c(C)c4F)c3n2)CC1(C)C [Example 31, 1-(4-(4-((4-([1,2,4]triazolo[1,5-a]pyridin-7-yloxy)-2-fluoro-3-methylphenyl)amino)pyrido[3,2-d]pyrimidin-6-yl)-2,2-dimethylpiperazin-1-yl)prop-2-en-1-one]
5 | 2.3 | 2.6 | 7.31 | 8.26 | 8.28 | 7.33 | C=CC(=O)N1CCC(Oc2nc3c(Nc4ccc(Oc5ccn6ncnc6c5)c(Cl)c4F)ncnc3cc2OC)CC1 [Example 39, 1-(4-((4-((4-([1,2,4]triazolo[1,5-a]pyridin-7-yloxy)-3-chloro-2-fluorophenyl)amino)-7-methoxypyrido[3,2-d]pyrimidin-6-yl)oxy)piperidin-1-yl)prop-2-en-1-one]
6 | 2.5 | 2.9 | 6.11 | 7.83 | 7.77 | ≤ 5.30 | C=CC(=O)N1CCC(c2nc3c(Nc4ccc(Oc5ccc6c(c5)ncn6C)c(C)c4)ncnc3cc2OC)CC1 [Example 42, 1-(4-(7-methoxy-4-((3-methyl-4-((1-methyl-1H-benzo[d]imidazol-5-yl)oxy)phenyl)amino)pyrido[3,2-d]pyrimidin-6-yl)piperidin-1-yl)prop-2-en-1-one]
7 | 1.5 | 3 | 5.93 | 7.73 | 7.98 | 5.55 | C=CC(=O)N1CC[C@H]2CN(c3ccc4ncnc(Nc5ccc(Oc6ccn7ncnc7c6)c(Cl)c5F)c4n3)C[C@H]21 [Example 49, 1-((3aS,6aS)-5-(4-((4-([1,2,4]triazolo[1,5-a]pyridin-7-yloxy)-3-chloro-2-fluorophenyl)amino)pyrido[3,2-d]pyrimidin-6-yl)hexahydropyrrolo[3,4-b]pyrrol-1(2H)-yl)prop-2-en-1-one]
8 | 2.4 | 4.2 | ≤ 5.00 | 7.43 | 7.48 | ≤ 5.30 | C=CC(=O)N1CCC(Sc2ccc3ncnc(Nc4cc(C)c(Oc5ccc6c(c5)ncn6C)cc4F)c3n2)CC1 [Example 64, 1-(4-((4-((2-fluoro-5-methyl-4-((1-methyl-1H-benzo[d]imidazol-5-yl)oxy)phenyl)amino)pyrido[3,2-d]pyrimidin-6-yl)thio)piperidin-1-yl)prop-2-en-1-one]
9 | 1.4 | 4 | 6.77 | 7.76 | 8.38 | 6.84 | C=CC(=O)N1CC[C@@H]2C[C@H]1CN2c1ccc2ncnc(Nc3ccc(Oc4ccn5ncnc5c4)c(C)c3F)c2n1 [Example 65, 1-((1S,5R)-6-(4-((4-([1,2,4]triazolo[1,5-a]pyridin-7-yloxy)-2-fluoro-3-methylphenyl)amino)pyrido[3,2-d]pyrimidin-6-yl)-2,6-diazabicyclo[3.2.1]octan-2-yl)prop-2-en-1-one]
10 | 3 | 2.4 | ≤ 5.00 | 6.85 | 7.70 | ≤ 5.30 | C=CC(=O)N1CCCN(c2ccc3ncnc(Nc4ccc(Oc5ccc6c(c5)ncn6C)c(C)c4F)c3n2)CC1(C)C [Example 69, 1-(4-(4-((2-fluoro-3-methyl-4-((1-methyl-1H-benzo[d]imidazol-5-yl)oxy)phenyl)amino)pyrido[3,2-d]pyrimidin-6-yl)-2,2-dimethyl-1,4-diazepan-1-yl)prop-2-en-1-one]
11 | 1.1 | 4.3 | 5.29 | 7.44 | 7.54 | 5.62 | C=CC(=O)N1CCN(c2ccc3ncnc(Nc4cc(C)c(Oc5ccn6ncnc6c5)cc4F)c3n2)CC1(C)C [Example 73, 1-(4-(4-((4-([1,2,4]triazolo[1,5-a]pyridin-7-yloxy)-2-fluoro-5-methylphenyl)amino)pyrido[3,2-d]pyrimidin-6-yl)-2,2-dimethylpiperazin-1-yl)prop-2-en-1-one]
12 | 2 | 3.9 | 5.14 | 7.24 | 7.90 | 5.36 | C=CC(=O)N1CCN(c2ccc3ncnc(Nc4cc(C)c(Oc5ccc6c(c5)ncn6C)cc4F)c3n2)CC1(C)C [Example 82, 1-(4-(4-((2-fluoro-5-methyl-4-((1-methyl-1H-benzo[d]imidazol-5-yl)oxy)phenyl)amino)pyrido[3,2-d]pyrimidin-6-yl)-2,2-dimethylpiperazin-1-yl)prop-2-en-1-one]
13 | 1.9 | 3.8 | 6.66 | 7.39 | 8.11 | 6.60 | C=CC(=O)N1C[C@@H]2C[C@H]1CN2c1ccc2ncnc(Nc3ccc(Oc4ccc5c(c4)ncn5C)c(C)c3F)c2n1 [Example 84, 1-((1S,4S)-5-(4-((2-fluoro-3-methyl-4-((1-methyl-1H-benzo[d]imidazol-5-yl)oxy)phenyl)amino)pyrido[3,2-d]pyrimidin-6-yl)-2,5-diazabicyclo[2.2.1]heptan-2-yl)prop-2-en-1-one]

Row | SMILES | efflux ratio at 2 h, 1 µM (MDR1 (P-gp)) | efflux ratio at 2 h, 1 µM (BCRP) | pIC50 (EGFR) | pIC50 (ErbB2 WT) | pIC50 [1] | pIC50 (EGFR wild type (EGFR WT))
14 | C=CC(=O)N1C2CC1CN(c1ccc3ncnc(Nc4ccc(Oc5ccn6ncnc6c5)c(Cl)c4F)c3n1)C2 [Example 25, 1-(3-(4-((4-([1,2,4]triazolo[1,5-a]pyridin-7-yloxy)-3-chloro-2-fluorophenyl)amino)pyrido[3,2-d]pyrimidin-6-yl)-3,6-diazabicyclo[3.1.1]heptan-6-yl)prop-2-en-1-one] | 2.2 | 6.8 | 6.25 | 7.30 | 7.92 | 6.49
15 | C=CC(=O)N1C2CC1CN(c1ccc3ncnc(Nc4cc(C)c(Oc5ccn6ncnc6c5)cc4F)c3n1)C2 [Example 43, 1-(3-(4-((4-([1,2,4]triazolo[1,5-a]pyridin-7-yloxy)-2-fluoro-5-methylphenyl)amino)pyrido[3,2-d]pyrimidin-6-yl)-3,6-diazabicyclo[3.1.1]heptan-6-yl)prop-2-en-1-one] | 3 | 4.1 | ≤ 5.00 | 6.92 | 7.67 | ≤ 5.30
16 | C=CC(=O)N1CC2CC(C1)N2c1ccc2ncnc(Nc3cc(Cl)c(Oc4ccn5ncnc5c4)cc3F)c2n1 [Example 45, 1-(6-(4-((4-([1,2,4]triazolo[1,5-a]pyridin-7-yloxy)-5-chloro-2-fluorophenyl)amino)pyrido[3,2-d]pyrimidin-6-yl)-3,6-diazabicyclo[3.1.1]heptan-3-yl)prop-2-en-1-one] | 2.5 | 5.6 | 5.08 | 6.65 | 7.77 | 5.56
17 | C=CC(=O)N1CC2CC(C1)N2c1ccc2ncnc(Nc3ccc(Oc4ccn5ncnc5c4)c(C)c3F)c2n1 [Example 46, 1-(6-(4-((4-([1,2,4]triazolo[1,5-a]pyridin-7-yloxy)-2-fluoro-3-methylphenyl)amino)pyrido[3,2-d]pyrimidin-6-yl)-3,6-diazabicyclo[3.1.1]heptan-3-yl)prop-2-en-1-one] | 2.5 | 2.5 | 5.90 | 6.93 | 7.74 | 5.68

From patent publication US12447153B2, “HER2 mutation inhibitors” (Array BioPharma Inc., priority 2021, dated 2025)
